{"source": "patent US7160915B2", "about": "“N-methyl-substituted benzamidazoles” (Warner-Lambert Company, LLC, priority 2003, dated 2007)", "note": "pIC50: −log10 of the molar value.", "data": [{"test_system": "phosphorylation of MAP kinase (ERK) in murine colon 26 (C26) carcinoma cells", "experiment": "Cellular assay for measuring MEK inhibition: inhibition of ERK phosphorylation, C26CPA1", "assay_type": "cell-based", "details": "Mus musculus, 1 h, C26 cells treated one hour with test compound", "procedure": "(§1) Cellular Assay for Measuring MEK Inhibition\n(§2) MEK inhibitors were evaluated by determining their ability to inhibit phosphorylation of MAP kinase (ERK) in murine colon 26 (C26) carcinoma cells. Since ERK1 and ERK2 represent the only known substrates for MEK1 and MEK2, the measurement of inhibition of ERK phosphorylation in cells provides direct read out of cellular MEK inhibition by the compounds of the invention. Detection of phosphorylation of ERK was carried out either by Western blot or ELISA format. Briefly, the assays involve treatment of exponentially growing C26 cells with varying concentrations of the test compound (or vehicle control) for one hour at 35° C. For Western blot assay, cells were rinsed free of compound/vehicle and lysed in a solution containing 50 mM NaCl, 50 mM glycerol phosphate, 10 mM HEPES, pH […], 1% Triton X-100, 1 mM Na3VO4, 100 μM PMSF, 10 μM leupeptin and 10 μM pepstatin. Supernatants were then subjected to gel electrophoresis and hybridized to a primary antibody recognizing dually phosphorylated ERK1 and ERK2. To evaluate total MAPK levels, blots were subsequently ‘stripped’ and re-probed with a 1:1 mixture of polyclonal antibodies recognizing unphosphorylated ERK1 and ERK2. For pERK ELISA assay, pERK TiterZyme Enzyme immunometric Assay kits were acquired from Assay Designs, Inc (Ann Arbor, Mich.). Briefly, cells were harvested in lysis solution containing 50 mM β-glycerophosphate, 10 mM HEPES, pH5.4, 50 mM NaCl, 2mM EDTA and 1% SDS and protein lysates were diluted 1:15 with supplied Assay buffer prior to the execution of the assay. The subsequent steps were carried out essentially as recommended by the manufacturer.\n(§3) The inhibition data generated by the above protocol is disclosed in Table I. If several concentrations of inhibitor were tested, IC50 values (the concentration which gives 50% inhiition) were determined graphically from the dose response curve for % inhibition. Otherwise, percent inhibitions at measured concentrations are reported.\n(§4) Table I. Cellular Inhibition of ERK Phosphorylation by Compounds of the Invention", "values": [{"compound": "Cn1cnc2c(F)c(Nc3ccc(I)cc3F)c(-c3nnc(NCCO)o3)cc21", "note": "[Compound 6]", "pIC50": 6.24}, {"compound": "Cc1cc(I)ccc1Nc1c(C(=O)NOCC2CC2)cc2c(ncn2C)c1F", "note": "[Compound 9]", "pIC50": 7.92}, {"compound": "COC(=O)c1cc2c(ncn2C)c(F)c1Nc1ccc(I)cc1C", "note": "[Compound 11]", "pIC50": 6.00}, {"compound": "COC(=O)Cn1cnc2c(F)c(Nc3ccc(I)cc3C)c(C(=O)NOCC3CC3)cc21", "note": "[Compound 12]", "pIC50": 7.66}, {"compound": "Cc1cc(I)ccc1Nc1c(C(=O)NOCCO)cc2c(ncn2C)c1F", "note": "[Compound 13]", "pIC50": 8.47}, {"compound": "CCCn1cnc2c(F)c(Nc3ccc(I)cc3C)c(C(=O)NOCC3CC3)cc21", "note": "[Compound 14]", "pIC50": 7.55}, {"compound": "Cc1cc(I)ccc1Nc1c(C(=O)NOCC(O)CO)cc2c(ncn2C)c1F", "note": "(stereo not shown) [Compound 15]", "pIC50": 7.07}, {"compound": "Cc1cc(I)ccc1Nc1c(C(=O)NOCC2CC2)cc2c(ncn2CCCO)c1F", "note": "[Compound 16]", "pIC50": 6.96}, {"compound": "CNCCONC(=O)c1cc2c(ncn2C)c(F)c1Nc1ccc(I)cc1C", "note": "[Compound 20]", "pIC50": 6.72}, {"compound": "Cc1cc(I)ccc1Nc1c(-c2nnc(N)o2)cc2c(ncn2C)c1F", "note": "[Compound 21]", "pIC50": 6.57}, {"compound": "Cc1cc(I)ccc1Nc1c(C(N)=O)cc2c(ncn2C)c1F", "note": "[Compound 22]", "pIC50": 7.39}, {"compound": "Cn1cnc2c(F)c(Nc3ccc(I)cc3F)c(C(N)=O)cc21", "note": "[Compound 23]", "pIC50": 8.70}, {"compound": "Cn1cnc2c(F)c(Nc3ccc(I)cc3F)c(C(=O)NCC(O)CO)cc21", "note": "(stereo not shown) [Compound 24]", "pIC50": 6.25}, {"compound": "Cn1cnc2c(F)c(Nc3ccc(I)cc3F)c(C(=O)NCCO)cc21", "note": "[Compound 25]", "pIC50": 6.91}, {"compound": "Cn1cnc2c(F)c(Nc3ccc(I)cc3F)c(C(=O)NCCCO)cc21", "note": "[Compound 26]", "pIC50": 6.82}, {"compound": "Cc1cc(I)ccc1Nc1c(CO)cc2c(ncn2C)c1F", "note": "[Compound 28]", "pIC50": 6.25}, {"compound": "Cn1cnc2c(F)c(Nc3ccc(I)cc3F)c(C(=O)NO)cc21", "note": "[Compound 30]", "pIC50": 9.40}, {"compound": "Cn1cnc2c(F)c(Nc3ccc(I)cc3F)c(C(=O)NCCCN)cc21", "note": "[Compound 31]", "pIC50": 6.00}, {"compound": "Cn1cnc2c(F)c(Nc3ccc(I)cc3F)c(C(=O)NOCCO)cc21", "note": "[Compound 32]", "pIC50": 8.72}, {"compound": "Cn1cnc2c(F)c(Nc3ccc(I)cc3F)c(C(=O)NOC[C@H](O)CO)cc21", "note": "[Compound 34]", "pIC50": 7.66}, {"compound": "Cc1cc(I)ccc1Nc1c(C(=O)NOCC2CC2)cc2c(ncn2CC(O)CO)c1F", "note": "(stereo not shown) [Compound 35]", "pIC50": 8.05}, {"compound": "CCc1ccc(Nc2c(C(=O)OC)cc3c(ncn3C)c2F)c(F)c1", "note": "[Compound 38]", "pIC50": 6.64}, {"compound": "Cn1cnc2c(F)c(Nc3ccc(I)cc3F)c(CO)cc21", "note": "[Compound 40]", "pIC50": 7.10}]}, {"test_system": "phosphorylation of MAP kinase (ERK) in murine colon 26 (C26) carcinoma cells", "experiment": "Cellular assay for measuring MEK inhibition: inhibition of ERK phosphorylation, C26ELSA (pERK ELISA)", "assay_type": "cell-based", "details": "Mus musculus, 1 h, C26 cells treated one hour with test compound", "procedure": "as §1, §2, §3, §4", "values": [{"compound": "Cn1cnc2c(F)c(Nc3ccc(I)cc3F)c(C(=O)NCCCO)cc21", "note": "[Compound 1]", "pIC50": 6.26}, {"compound": "Cn1cnc2c(F)c(Nc3ccc(I)cc3F)c(C(N)=O)cc21", "note": "[Compound 23]", "pIC50": 8.07}, {"compound": "CCc1ccc(Nc2c(C(N)=O)cc3c(ncn3C)c2F)c(F)c1", "note": "[Compound 42]", "pIC50": 6.55}]}, {"test_system": "not given", "experiment": "not given", "details": "not given", "values": [{"compound": "Cn1cnc2c(F)c(Nc3ccc(I)cc3F)c(C(N)=O)cc21", "note": "[Example 2]", "melting point": "265 to 268 °C (dec.)"}, {"compound": "Cc1cc(I)ccc1Nc1c(-c2nnc(N)o2)cc2c(ncn2C)c1F", "note": "[Example 4, [6-(5-amino-[1,3,4]oxadiazol-2-yl)-4-fluoro-1-methyl-1H-benzoimidazol-5-yl]-(4-iodo-2-methyl-phenyl)-amine]", "melting point": "258 to 260 °C"}]}]}
